The NIST ThermoML archive (doi:10.1021/je901043q)

What was measured:
[1] = xn = mol fraction of the nth substance listed; details: 101 kPa, Liquid
[2] = 101 kPa, Liquid

CCCCCCCCO [octan-1-ol] + CCCCn1cc[n+](C)c1.N#C[S-]
[1], x2 = 0
Details | mass density [kg/m3] | viscosity [mPa·s]
298.15 K | 821.61 | 7.398
308.15 K | 814.64 | 5.285
318.15 K | 807.57 | 3.887
328.15 K | 800.39 | 2.931
338.15 K | 793.09 | 2.262
348.15 K | 785.59 | 1.782

CCCCCCCCCO [nonan-1-ol] + CCCCn1cc[n+](C)c1.N#C[S-]
[1], x2 = 0
Details | mass density [kg/m3] | viscosity [mPa·s]
298.15 K | 824.27 | 9.343
308.15 K | 817.36 | 6.497
318.15 K | 810.4 | 4.674
328.15 K | 803.29 | 3.452
338.15 K | 796.1 | 2.664
348.15 K | 788.72 | 2.256

CCCCCCCCCCO [decan-1-ol]
[2]
Details | mass density [kg/m3] | viscosity [mPa·s]
298.15 K | 826.38 | 11.09
308.15 K | 819.53 | 7.632
318.15 K | 812.62 | 5.375
328.15 K | 805.61 | 3.928
338.15 K | 798.48 | 2.964
348.15 K | 791.21 | 2.399

CCCCCCCCCO [nonan-1-ol]
[2]
Details | mass density [kg/m3] | viscosity [mPa·s]
298.15 K | 824.27 | 9.343
308.15 K | 817.36 | 6.497
318.15 K | 810.4 | 4.674
328.15 K | 803.29 | 3.452
338.15 K | 796.1 | 2.664
348.15 K | 788.72 | 2.256

CCCCCCCO [heptan-1-ol] + CCCCn1cc[n+](C)c1.N#C[S-]
[1], x2 = 0
Details | mass density [kg/m3] | viscosity [mPa·s]
298.15 K | 818.81 | 5.851
308.15 K | 811.73 | 4.26
318.15 K | 804.55 | 3.184
328.15 K | 797.22 | 2.434
338.15 K | 789.75 | 1.9
348.15 K | 782.08 | 1.512

CCCCn1cc[n+](C)c1.N#C[S-] [1-butyl-3-methylimidazolium thiocyanate]
[2]
Details | mass density [kg/m3] | viscosity [mPa·s]
298.15 K | 1069.79 | 51.74
308.15 K | 1063.89 | 34.87
318.15 K | 1058.02 | 24.19
328.15 K | 1052.19 | 16.7
338.15 K | 1046.43 | 12.73
348.15 K | 1040.7 | 9.98

CCCCCCCO [heptan-1-ol]
[2]
Details | mass density [kg/m3] | viscosity [mPa·s]
298.15 K | 818.81 | 5.851
308.15 K | 811.73 | 4.26
318.15 K | 804.55 | 3.184
328.15 K | 797.22 | 2.434
338.15 K | 789.75 | 1.9
348.15 K | 782.08 | 1.512

CCCCCCCCCCO [decan-1-ol] + CCCCn1cc[n+](C)c1.N#C[S-]
[1], x2 = 0
Details | mass density [kg/m3] | viscosity [mPa·s]
298.15 K | 826.38 | 11.09
308.15 K | 819.53 | 7.632
318.15 K | 812.62 | 5.375
328.15 K | 805.61 | 3.928
338.15 K | 798.48 | 2.964
348.15 K | 791.21 | 2.399

CCCCCCCCO [octan-1-ol]
[2]
Details | mass density [kg/m3] | viscosity [mPa·s]
298.15 K | 821.61 | 7.398
308.15 K | 814.64 | 5.285
318.15 K | 807.57 | 3.887
328.15 K | 800.39 | 2.931
338.15 K | 793.09 | 2.262
348.15 K | 785.59 | 1.782

CCCCn1cc[n+](C)c1.N#C[S-] [1-butyl-3-methylimidazolium thiocyanate] + CCCCCCCCCO
[1]
Details | mass density [kg/m3] | viscosity [mPa·s]
298.15 K, x1 = 0.1203 | 855.59 | 12.19
298.15 K, x1 = 0.2008 | 876.27 | 14.2
298.15 K, x1 = 0.2814 | 896.75 | 16.58
298.15 K, x1 = 0.3884 | 923.66 | 20.3
298.15 K, x1 = 0.5697 | 968.54 | 28.04
298.15 K, x1 = 0.6709 | 993.14 | 32.31
298.15 K, x1 = 0.7658 | 1015.88 | –
298.15 K, x1 = 0.8618 | 1038.46 | 41.61
298.15 K, x1 = 0.9651 | 1062.11 | 46.89
298.15 K, x1 = 1 | 1069.79 | 51.74
308.15 K, x1 = 0.1203 | 848.88 | 8.664
308.15 K, x1 = 0.2008 | 869.7 | 10.14
308.15 K, x1 = 0.2814 | 890.24 | 11.81
308.15 K, x1 = 0.3884 | 917.27 | 14.3
308.15 K, x1 = 0.5697 | 962.4 | 19.35
308.15 K, x1 = 0.6709 | 987.05 | 22.23
308.15 K, x1 = 0.7658 | 1009.89 | –
308.15 K, x1 = 0.8618 | 1032.53 | 27.8
308.15 K, x1 = 0.9651 | 1056.18 | 31.09
308.15 K, x1 = 1 | 1063.89 | 34.87
318.15 K, x1 = 0.1203 | 841.98 | 6.378
318.15 K, x1 = 0.2008 | 862.96 | 7.487
318.15 K, x1 = 0.2814 | 883.74 | 8.739
318.15 K, x1 = 0.3884 | 910.89 | 10.55
318.15 K, x1 = 0.5697 | 956.26 | 14.03
318.15 K, x1 = 0.6709 | 981.02 | 16.01
318.15 K, x1 = 0.7658 | 1003.93 | –
318.15 K, x1 = 0.8618 | 1026.62 | 19.67
318.15 K, x1 = 0.9651 | 1050.33 | 21.81
318.15 K, x1 = 1 | 1058.02 | 24.19
328.15 K, x1 = 0.1203 | 835.4 | 4.782
328.15 K, x1 = 0.2008 | 856.36 | 5.662
328.15 K, x1 = 0.2814 | 877.25 | 6.629
328.15 K, x1 = 0.3884 | 904.56 | 8.032
328.15 K, x1 = 0.5697 | 950.15 | 10.61
328.15 K, x1 = 0.6709 | 975 | 12.04
328.15 K, x1 = 0.7658 | 998.03 | –
328.15 K, x1 = 0.8618 | 1020.79 | 14.55
328.15 K, x1 = 0.9651 | 1044.5 | 16.06
328.15 K, x1 = 1 | 1052.19 | 16.7
338.15 K, x1 = 0.1203 | 828.56 | 3.695
338.15 K, x1 = 0.2008 | 849.77 | 4.408
338.15 K, x1 = 0.2814 | 870.73 | 5.139
338.15 K, x1 = 0.3884 | 898.2 | 6.237
338.15 K, x1 = 0.5697 | 944.06 | 8.26
338.15 K, x1 = 0.6709 | 969.04 | 9.33
338.15 K, x1 = 0.7658 | 992.15 | –
338.15 K, x1 = 0.8618 | 1014.99 | 11.22
338.15 K, x1 = 0.9651 | 1038.73 | 12.32
338.15 K, x1 = 1 | 1046.43 | 12.73
348.15 K, x1 = 0.1203 | 821.64 | 2.971
348.15 K, x1 = 0.2008 | 843.14 | 3.521
348.15 K, x1 = 0.2814 | 864.18 | 4.102
348.15 K, x1 = 0.3884 | 891.86 | 4.962
348.15 K, x1 = 0.5697 | 937.98 | 6.512
348.15 K, x1 = 0.6709 | 963.09 | 7.404
348.15 K, x1 = 0.7658 | 986.31 | –
348.15 K, x1 = 0.8618 | 1009.22 | 8.89
348.15 K, x1 = 0.9651 | 1032.99 | 9.74
348.15 K, x1 = 1 | 1040.7 | 9.98
